In US20260028571A1, “BIOREACTORS FOR PERFUSING CELLS” (Ramot at Tel-Aviv University Ltd., priority 2023, published 2026):

Tests used:
[1] = test system: patient-derived mucosal melanoma cells; experiment: Drug testing on patient-derived 3D tumor organoids in the perfusion system; type: cell-based, human; conditions: 96-well 3D tumor organoids with patient-derived PBMCs, FIG. 7
Procedure: (§1) Blood and tissue samples from a mucosal melanoma, a patient having the following characteristics: • person, malignant mucosal melanoma. • Tissue site: resected from the groin lymph node
96-well 3D tumor organoids were generated from the tumor sample (i.e. tumor cells and microenvironment cells, blood vessels and PBMCs were created from the samples. The tumor organoids were cultured in a plate similar to that shown in FIG. 1A. Each treatment was tested on multiple 3D organoids, each treatment corresponding to a single sequence of connected cell wells.
Multiple treatments and combinations were tested on the patient-derived mucosal melanoma cells and the patient-derived PBMCs, as summarized in FIG. 7.

[2] = test system: malignant mucosal melanoma; experiment: Clinical treatment of the mucosal melanoma patient; type: in vivo, human
Source text: as §1
This was followed by additional cycles of nivolumab post-surgery as adjuvant therapy resulting in further PD.
The perfusion system could have anticipated the unfavorable prognosis associated with Nivolumab (which was what was originally prescribed by the doctor) within 1-2 weeks, potentially sparing the patient six months of ineffective treatment, side effects, and the high costs as well as the time in which further mutations occurred.

Row | Molecule | efficacy [1] | reduction in tumor size ([2]; within a two-week timeframe) | response [1] | clinical outcome ([2]; additional cycles post-surgery as adjuvant therapy) | clinical outcome ([2]; neoadjuvant therapy, 4 cycles)
1 | CNC(=O)c1cc(Oc2ccc(NC(=O)Nc3ccc(Cl)c(C(F)(F)F)c3)c(F)c2)ccn1 [Regorafenib] | 93% | 50% |  |  | 
2 | Pembrolizumab |  |  | 0% |  | 
3 | Atezolizumab |  |  | 0% |  | 
4 | Nivolumab |  |  | 0% | further PD | progressive disease (PD)
